What was measured:
[1] = biological target: Matrix metalloproteinase-9 (Homo sapiens) (UniProt P14780); experiment: Binding affinity to human MMP9 at 10 uM after 90 mins by fluorescence assay relative to control
[2] = biological target: Histone deacetylase 3 (Homo sapiens) (UniProt O15379); experiment: Binding affinity to recombinant human HDAC3 at 10 uM after 10 mins by fluorescence analysis relative to control
[3] = biological target: Cholecystokinin receptor type A (Homo sapiens) (UniProt P32238); experiment: Binding affinity to recombinant human CCK1 at 10 uM after 60 mins by scintillation counting analysis relative to control
Cholecystokinin receptor type A (Homo sapiens), sequence (P32238 whole entry): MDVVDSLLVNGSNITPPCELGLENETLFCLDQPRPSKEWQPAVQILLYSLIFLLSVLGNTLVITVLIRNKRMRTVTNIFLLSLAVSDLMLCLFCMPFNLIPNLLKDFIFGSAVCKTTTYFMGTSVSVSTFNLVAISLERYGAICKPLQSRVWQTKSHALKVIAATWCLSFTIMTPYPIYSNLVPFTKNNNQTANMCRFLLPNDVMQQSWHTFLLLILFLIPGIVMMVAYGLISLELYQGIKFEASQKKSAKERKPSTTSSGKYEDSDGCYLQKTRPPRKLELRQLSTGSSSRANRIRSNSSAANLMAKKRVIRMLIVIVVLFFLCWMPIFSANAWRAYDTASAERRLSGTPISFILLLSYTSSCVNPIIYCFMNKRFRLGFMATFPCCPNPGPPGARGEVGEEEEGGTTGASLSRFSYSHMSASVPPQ

[4] = biological target: Prostaglandin G/H synthase 2 (Homo sapiens) (UniProt P35354); experiment: Binding affinity to recombinant human COX2 at 10 uM after 5 mins by fluorescence assay relative to control
Prostaglandin G/H synthase 2 (Homo sapiens), sequence (P35354 whole entry, looked up): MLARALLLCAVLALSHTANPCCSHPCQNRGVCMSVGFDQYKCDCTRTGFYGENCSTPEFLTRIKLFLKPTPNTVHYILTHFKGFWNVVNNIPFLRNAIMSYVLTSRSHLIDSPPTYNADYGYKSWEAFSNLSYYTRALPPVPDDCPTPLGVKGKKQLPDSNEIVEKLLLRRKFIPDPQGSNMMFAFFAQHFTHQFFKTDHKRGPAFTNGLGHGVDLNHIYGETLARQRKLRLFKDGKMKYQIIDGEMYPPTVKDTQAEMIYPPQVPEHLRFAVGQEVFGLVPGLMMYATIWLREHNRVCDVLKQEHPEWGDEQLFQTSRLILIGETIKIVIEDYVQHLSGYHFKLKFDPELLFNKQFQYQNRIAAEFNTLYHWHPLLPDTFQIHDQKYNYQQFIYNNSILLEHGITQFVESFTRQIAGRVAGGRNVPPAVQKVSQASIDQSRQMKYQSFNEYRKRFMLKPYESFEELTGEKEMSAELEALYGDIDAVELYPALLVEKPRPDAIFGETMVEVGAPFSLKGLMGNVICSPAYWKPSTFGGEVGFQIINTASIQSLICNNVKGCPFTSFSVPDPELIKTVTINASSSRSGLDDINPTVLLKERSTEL

[5] = biological target: NAD-dependent protein deacetylase sirtuin-1 (Homo sapiens) (UniProt Q96EB6); experiment: Binding affinity to surtuin-1 (unknown origin) at 10 uM by relative to control
[6] = biological target: 5-hydroxytryptamine receptor 6 (Homo sapiens) (UniProt P50406); experiment: Binding affinity to recombinant human 5-HT6 receptor at 10 uM after 120 mins by scintillation counting analysis relative to control
[7] = species: Bos taurus; experiment: Binding affinity to bovine PDE6 at 10 uM after 60 mins by scintillation counting analysis relative to control
[8] = biological target: Proto-oncogene tyrosine-protein kinase Src (Homo sapiens) (UniProt P12931); experiment: Binding affinity to recombinant human Src at 10 uM after 10 mins by LANCE assay relative to control
Proto-oncogene tyrosine-protein kinase Src (Homo sapiens), sequence (P12931 2-536 limits assumed): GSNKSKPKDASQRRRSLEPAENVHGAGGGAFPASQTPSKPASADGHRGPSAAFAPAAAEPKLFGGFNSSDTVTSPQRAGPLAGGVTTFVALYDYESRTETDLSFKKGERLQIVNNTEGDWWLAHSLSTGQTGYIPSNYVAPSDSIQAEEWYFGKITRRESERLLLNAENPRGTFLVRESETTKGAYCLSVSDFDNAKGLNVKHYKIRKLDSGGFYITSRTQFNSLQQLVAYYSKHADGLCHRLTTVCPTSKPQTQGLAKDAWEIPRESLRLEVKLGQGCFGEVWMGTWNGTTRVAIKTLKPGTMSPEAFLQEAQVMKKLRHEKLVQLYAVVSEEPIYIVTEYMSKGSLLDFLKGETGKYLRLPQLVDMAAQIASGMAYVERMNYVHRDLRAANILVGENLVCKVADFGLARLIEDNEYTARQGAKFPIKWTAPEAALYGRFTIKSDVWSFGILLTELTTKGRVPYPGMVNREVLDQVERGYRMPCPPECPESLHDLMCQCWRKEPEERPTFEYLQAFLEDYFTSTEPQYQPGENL

[9] = biological target: Adenosine receptor A3 (Homo sapiens) (UniProt P0DMS8); experiment: Binding affinity to recombinant human A3 receptor at 10 uM after 120 mins by scintillation counting analysis relative to control
[10] = biological target: Mu-type opioid receptor (Homo sapiens) (UniProt P35372); experiment: Binding affinity to recombinant human mu opioid receptor at 10 uM after 120 mins by scintillation counting analysis relative to control
[11] = biological target: Nitric oxide synthase, inducible (Mus musculus) (UniProt P29477); experiment: Binding affinity to recombinant mouse iNOS at 10 uM after 120 mins by spectrophotometric analysis relative to control
[12] = biological target: 5-hydroxytryptamine receptor 7 (Homo sapiens) (UniProt P34969); experiment: Binding affinity to recombinant human 5-HT7 receptor at 10 uM after 120 mins by scintillation counting analysis relative to control
5-hydroxytryptamine receptor 7 (Homo sapiens), sequence (P34969 whole entry): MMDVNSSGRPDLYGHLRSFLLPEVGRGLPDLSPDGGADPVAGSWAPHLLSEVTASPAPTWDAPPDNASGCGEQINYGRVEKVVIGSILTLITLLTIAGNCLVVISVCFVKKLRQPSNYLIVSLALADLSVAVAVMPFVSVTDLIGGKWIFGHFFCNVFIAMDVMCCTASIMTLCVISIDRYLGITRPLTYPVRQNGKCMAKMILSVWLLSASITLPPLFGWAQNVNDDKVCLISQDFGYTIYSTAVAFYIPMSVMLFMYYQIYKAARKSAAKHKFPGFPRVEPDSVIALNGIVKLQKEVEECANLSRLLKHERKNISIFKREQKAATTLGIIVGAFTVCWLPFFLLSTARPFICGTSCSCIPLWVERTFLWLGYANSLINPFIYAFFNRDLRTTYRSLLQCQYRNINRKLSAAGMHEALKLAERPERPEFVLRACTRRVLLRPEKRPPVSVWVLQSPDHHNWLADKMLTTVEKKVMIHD

[13] = biological target: L-type calcium channel (Homo sapiens, UniProt O60840+Q01668+Q13698+Q13936); experiment: Binding affinity to L-type calcium channel (unknown origin) at 10 uM relative to control; type: protein assay; conditions: read-out: Activity
[14] = biological target: Histone deacetylase 4 (Homo sapiens) (UniProt P56524); experiment: Binding affinity to recombinant human HDAC4 at 10 uM after 30 mins by fluorescence analysis relative to control
[15] = biological target: Muscarinic acetylcholine receptor M4 (Homo sapiens) (UniProt P08173); experiment: Binding affinity to recombinant human muscarinic M4 receptor at 10 uM after 60 mins by scintillation counting analysis relative to control
Muscarinic acetylcholine receptor M4 (Homo sapiens), sequence (P08173 whole entry): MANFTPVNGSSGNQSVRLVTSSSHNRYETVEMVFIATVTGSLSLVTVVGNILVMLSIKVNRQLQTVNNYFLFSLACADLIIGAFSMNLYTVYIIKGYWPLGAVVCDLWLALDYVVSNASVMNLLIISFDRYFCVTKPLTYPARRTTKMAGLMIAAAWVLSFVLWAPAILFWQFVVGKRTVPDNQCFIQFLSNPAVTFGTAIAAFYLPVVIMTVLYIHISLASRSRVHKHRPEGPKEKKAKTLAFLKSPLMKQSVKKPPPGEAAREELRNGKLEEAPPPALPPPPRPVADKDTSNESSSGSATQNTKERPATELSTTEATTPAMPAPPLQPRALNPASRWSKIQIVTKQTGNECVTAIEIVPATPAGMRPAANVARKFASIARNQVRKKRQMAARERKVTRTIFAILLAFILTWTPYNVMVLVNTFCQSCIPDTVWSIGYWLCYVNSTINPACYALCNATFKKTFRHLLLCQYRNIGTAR

[16] = biological target: Translocator protein (Homo sapiens) (UniProt P30536); experiment: Binding affinity to peripheral-type benzodiazepine receptor (unknown origin) at 10 uM relative to control
[17] = biological target: 5-hydroxytryptamine receptor 3A (Homo sapiens) (UniProt P46098); experiment: Binding affinity to recombinant human 5-HT3 receptor at 10 uM after 120 mins by scintillation counting analysis relative to control
5-hydroxytryptamine receptor 3A (Homo sapiens), sequence (P46098 whole entry): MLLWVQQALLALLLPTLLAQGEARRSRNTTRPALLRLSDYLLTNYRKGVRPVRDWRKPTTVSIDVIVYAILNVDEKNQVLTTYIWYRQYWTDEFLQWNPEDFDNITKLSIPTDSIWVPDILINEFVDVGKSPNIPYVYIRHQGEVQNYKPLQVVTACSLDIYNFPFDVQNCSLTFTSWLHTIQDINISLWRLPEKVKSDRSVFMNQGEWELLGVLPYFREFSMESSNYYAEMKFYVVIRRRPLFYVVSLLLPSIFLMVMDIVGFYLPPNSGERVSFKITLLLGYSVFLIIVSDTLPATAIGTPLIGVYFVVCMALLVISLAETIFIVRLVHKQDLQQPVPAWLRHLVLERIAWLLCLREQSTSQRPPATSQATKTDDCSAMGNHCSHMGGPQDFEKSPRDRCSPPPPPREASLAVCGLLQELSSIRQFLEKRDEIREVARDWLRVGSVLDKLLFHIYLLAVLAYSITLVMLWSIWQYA

[18] = biological target: Caspase-3 (Homo sapiens) (UniProt P42574); experiment: Binding affinity to recombinant human caspase 3 at 10 uM after 60 mins by fluorescence assay relative to control
[19] = biological target: Adenosine receptor A2a (Homo sapiens) (UniProt P29274); experiment: Binding affinity to recombinant human A2A receptor at 10 uM after 120 mins by scintillation counting analysis relative to control
Adenosine receptor A2a (Homo sapiens), sequence (P29274 whole entry): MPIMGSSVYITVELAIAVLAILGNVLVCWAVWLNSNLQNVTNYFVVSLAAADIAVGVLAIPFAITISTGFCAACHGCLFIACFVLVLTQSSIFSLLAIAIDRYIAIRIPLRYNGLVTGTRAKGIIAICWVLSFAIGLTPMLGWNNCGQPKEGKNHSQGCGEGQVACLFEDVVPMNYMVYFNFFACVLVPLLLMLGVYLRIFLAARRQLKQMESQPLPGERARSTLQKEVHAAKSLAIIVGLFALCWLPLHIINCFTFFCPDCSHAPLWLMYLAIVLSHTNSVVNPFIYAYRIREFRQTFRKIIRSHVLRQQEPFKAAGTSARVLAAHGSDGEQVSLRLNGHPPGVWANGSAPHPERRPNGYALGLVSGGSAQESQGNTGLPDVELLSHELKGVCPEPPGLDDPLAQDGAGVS

[20] = biological target: 5-hydroxytryptamine receptor 1B (Homo sapiens) (UniProt P28222); experiment: Binding affinity to recombinant human full length 5-HT1B receptor at 10 uM after 90 mins by scintillation counting analysis relative to control
[21] = species: Homo sapiens; experiment: Binding affinity to elastase (unknown origin) at 10 uM relative to control
[22] = biological target: Adrenergic receptor alpha-1 (Rattus norvegicus) (UniProt P15823+P23944+P43140); experiment: Binding affinity to rat alpha1 receptor at 10 uM after 60 mins by scintillation counting analysis relative to control; type: protein assay
[23] = biological target: D(2) dopamine receptor (Homo sapiens) (UniProt P14416); experiment: Binding affinity to recombinant human dopamine receptor D2S at 10 uM after 60 mins by scintillation counting analysis relative to control
[24] = biological target: Sodium-dependent noradrenaline transporter (Homo sapiens) (UniProt P23975); experiment: Binding affinity to norepinephrine transporter (unknown origin) at 10 uM relative to control
[25] = biological target: Centromere-associated protein E (Homo sapiens) (UniProt Q02224); experiment: Binding affinity to recombinant human CENPE at 10 uM after 30 mins by spectrophotometric analysis relative to control
[26] = biological target: 5-hydroxytryptamine receptor 2C (Homo sapiens) (UniProt P28335); experiment: Binding affinity to recombinant human 5-HT2C receptor at 10 uM after 60 mins by scintillation counting analysis relative to control
[27] = species: Homo sapiens; experiment: Binding affinity to sodium channel (unknown origin) at 10 uM relative to control
[28] = biological target: cGMP-inhibited 3',5'-cyclic phosphodiesterase 3A (Homo sapiens) (UniProt Q14432); experiment: Binding affinity to recombinant human PDE3A at 10 uM after 20 mins by scintillation counting analysis relative to control
[29] = biological target: Calcitonin gene-related peptide type 1 receptor (Homo sapiens) (UniProt Q16602); experiment: Binding affinity to recombinant human CGRP at 10 uM after 90 mins by scintillation counting analysis relative to control
[30] = biological target: Beta-2 adrenergic receptor (Homo sapiens) (UniProt P07550); experiment: Binding affinity to recombinant human beta 2 adrenoceptor at 10 uM after 120 mins by scintillation counting analysis relative to control
Beta-2 adrenergic receptor (Homo sapiens), sequence (P07550 whole entry, looked up): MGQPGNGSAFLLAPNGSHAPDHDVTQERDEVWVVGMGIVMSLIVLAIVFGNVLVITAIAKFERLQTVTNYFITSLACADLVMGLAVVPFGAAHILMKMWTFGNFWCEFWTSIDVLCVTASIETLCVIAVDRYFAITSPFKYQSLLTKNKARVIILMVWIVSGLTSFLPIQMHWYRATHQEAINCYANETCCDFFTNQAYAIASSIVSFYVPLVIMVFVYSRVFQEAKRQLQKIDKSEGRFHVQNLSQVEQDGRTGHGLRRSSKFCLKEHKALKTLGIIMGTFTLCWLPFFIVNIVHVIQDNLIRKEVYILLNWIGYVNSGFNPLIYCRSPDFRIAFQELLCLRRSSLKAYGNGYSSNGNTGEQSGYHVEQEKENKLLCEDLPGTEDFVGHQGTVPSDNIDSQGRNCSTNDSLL

[31] = biological target: Nociceptin receptor (Homo sapiens) (UniProt P41146); experiment: Binding affinity to recombinant human NOP receptor at 10 uM after 60 mins by scintillation counting analysis relative to control
Nociceptin receptor (Homo sapiens), sequence (P41146 whole entry): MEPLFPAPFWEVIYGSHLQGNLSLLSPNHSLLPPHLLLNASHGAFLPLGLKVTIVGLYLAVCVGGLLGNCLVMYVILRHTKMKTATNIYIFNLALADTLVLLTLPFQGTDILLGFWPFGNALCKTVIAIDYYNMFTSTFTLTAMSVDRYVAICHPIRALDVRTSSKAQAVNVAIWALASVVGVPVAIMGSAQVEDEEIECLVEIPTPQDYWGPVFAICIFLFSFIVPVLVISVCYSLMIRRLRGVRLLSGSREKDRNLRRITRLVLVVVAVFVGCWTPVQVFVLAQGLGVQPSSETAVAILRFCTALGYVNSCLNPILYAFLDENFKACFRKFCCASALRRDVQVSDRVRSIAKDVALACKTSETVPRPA

[32] = biological target: Peroxisome proliferator-activated receptor gamma (Homo sapiens) (UniProt P37231); experiment: Binding affinity to recombinant human PPARgamma receptor at 10 uM after 120 mins by scintillation counting analysis relative to control
[33] = biological target: Prostaglandin G/H synthase 1 (Homo sapiens) (UniProt P23219); experiment: Binding affinity to recombinant human COX1 at 10 uM after 3 mins by fluorescence assay relative to control
[34] = biological target: D(1A) dopamine receptor (Homo sapiens) (UniProt P21728); experiment: Binding affinity to recombinant human dopamine receptor D1 at 10 uM after 60 mins by scintillation counting analysis relative to control
[35] = biological target: Polyunsaturated fatty acid 5-lipoxygenase (Homo sapiens) (UniProt P09917); experiment: Binding affinity to recombinant human 5-LOX at 10 uM after 90 mins by fluorescence assay relative to control

Matrix metalloproteinase-9 (Homo sapiens), sequence (P14780 whole entry): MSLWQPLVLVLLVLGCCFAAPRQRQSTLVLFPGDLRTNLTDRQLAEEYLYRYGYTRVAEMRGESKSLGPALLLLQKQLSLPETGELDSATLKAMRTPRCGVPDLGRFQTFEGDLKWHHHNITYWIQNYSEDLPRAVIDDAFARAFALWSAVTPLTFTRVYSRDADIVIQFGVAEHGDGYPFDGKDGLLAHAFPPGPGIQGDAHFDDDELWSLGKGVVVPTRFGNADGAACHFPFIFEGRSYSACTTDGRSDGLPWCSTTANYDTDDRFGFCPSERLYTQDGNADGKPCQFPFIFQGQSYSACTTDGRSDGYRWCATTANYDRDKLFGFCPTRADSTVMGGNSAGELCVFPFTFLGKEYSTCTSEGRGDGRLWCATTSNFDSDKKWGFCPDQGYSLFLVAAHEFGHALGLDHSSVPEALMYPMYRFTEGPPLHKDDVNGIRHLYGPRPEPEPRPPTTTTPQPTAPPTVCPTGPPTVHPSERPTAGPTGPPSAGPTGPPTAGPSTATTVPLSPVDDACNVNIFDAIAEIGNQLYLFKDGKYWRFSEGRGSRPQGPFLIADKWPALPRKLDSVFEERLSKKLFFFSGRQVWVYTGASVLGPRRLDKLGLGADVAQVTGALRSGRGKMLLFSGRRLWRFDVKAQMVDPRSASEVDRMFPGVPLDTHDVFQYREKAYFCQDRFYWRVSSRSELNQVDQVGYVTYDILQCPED

Work on `CCOc1c(Cl)cc(C(=O)Nc2ccc(C(=O)O)c(C)c2)cc1OC(C)C` yielded an Activity [1] of under 25%, an Activity [2] of under 25% and an Activity [3] of under 25%. For the same compound, the Activity [4] was under 25%, the Activity [5] was under 25% and the Activity [6] was under 25%. It also gave an Activity [7] of under 25%, an Activity [8] of under 25% and an Activity [9] of under 25%. The Activity [10] was under 25%, the Activity [11] was under 25% and the Activity [12] was under 25%. It also gave an activity at 10 µM [13] of at most 25%, an Activity [14] of under 25% and an Activity [15] of under 25%. For the same compound, the Activity [16] was under 25%, the Activity [17] was under 25% and the Activity [18] was under 25%. For the same compound, the Activity [19] was under 25%, the Activity [20] was under 25% and the Activity [21] was under 25%. For the same compound, the Activity [22] was under 25%, the Activity [23] was under 25% and the Activity [24] was under 25%. It also gave an Activity [25] of under 25%, an Activity [26] of under 25% and an Activity [27] of under 25%. It also gave an Activity [28] of under 25%, an Activity [29] of under 25% and an Activity [30] of under 25%. For the same compound, the Activity [31] was under 25%, the Activity [32] was under 25% and the Activity [33] was under 25%. It also gave an Activity [34] of under 25% and an Activity [35] of under 25%.

Source: ChEMBL document CHEMBL4184197 (Bioorg Med Chem, 2018)
